# Assay results taken from US20100298141A1, “SUBSTITUTED PYRIDINE N-OXIDE HERBICIDES” (E. I. DU PONT DE NEMOURS AND COMPANY, priority 2007, published 2010).
# Experiments:
# [1] = tested on: duck salad; test: Test B flooded paddy test; format: in vivo, Heteranthera limosa; conditions: Flood, 250 g ai/ha, 13 to 15 days; scale 0 to 100, 0 no effect, 100 complete control
# Text: (§1) At time of treatment, test pots were flooded to 3 cm above the soil surface, treated by application of test compounds directly to the paddy water, and then maintained at that water depth for the duration of the test. Treated plants and controls were maintained in a greenhouse for 13 to 15 days, after which time all species were compared to controls and visually evaluated. […] A dash (-) response means no test result.
# [2] = tested on: barnyardgrass; test: Test B flooded paddy test; format: in vivo, Echinochloa crus-galli; conditions: Flood, 250 g ai/ha, 13 to 15 days; scale 0 to 100, 0 no effect, 100 complete control
# Text: as §1
# [3] = tested on: annual bluegrass; test: Test D preemergence test; format: in vivo, Poa annua; conditions: scale 0 to 100
# Text: (§2) Seeds of plant species selected from annual bluegrass (Poa annua), blackgrass (Alopecurus myosuroides), downy bromegrass (Bromus tectorum), field violet (Viola arvensis), green foxtail (Setaria viridis), Italian ryegrass (Lolium multiflorum), littleseed canarygrass (Phalaris minor), spring wheat (Triticum aestivum), wild oat (Avena fatua), […]), winter barley (Hordeum vulgare), and winter wheat (Triticum aestivum) were planted and treated preemergence with test chemicals formulated in a non-phytotoxic solvent mixture which included a surfactant. […] A dash (-) response means no test result.
# [4] = tested on: littleseed canarygrass; test: Test D preemergence test; format: in vivo, Phalaris minor; conditions: scale 0 to 100
# Text: as §2
# [5] = tested on: lambsquarters; test: Test G preemergence test; format: in vivo, Chenopodium album; conditions: scale 0 to 100
# [6] = tested on: millet; test: Test G preemergence test; format: in vivo, Panicum miliaceum; conditions: scale 0 to 100
# [7] = tested on: corn; test: Test G preemergence test; format: in vivo, Zea mays; conditions: scale 0 to 100
# [8] = tested on: giant foxtail; test: Test G preemergence test; format: in vivo, Setaria faberii; conditions: scale 0 to 100
# [9] = tested on: tall waterhemp; test: Test G preemergence test; format: in vivo, Amaranthus tuberculatos; conditions: scale 0 to 100
# [10] = tested on: winter barley; test: Test D preemergence test; format: in vivo, Hordeum vulgare
# Text: as §2
# [11] = tested on: Italian ryegrass; test: Test D preemergence test; format: in vivo, Lolium multiflorum; conditions: scale 0 to 100
# Text: as §2
# [12] = tested on: eastern black nightshade; test: Test G preemergence test; format: in vivo, Solanum ptycanthum; conditions: scale 0 to 100
# [13] = tested on: field sandbur; test: Test G preemergence test; format: in vivo, Cenchrus incertus; conditions: scale 0 to 100
# [14] = tested on: sorghum; test: Test G preemergence test; format: in vivo, Sorghum vulgare; conditions: scale 0 to 100
# [15] = tested on: yellow nutsedge; test: Test G preemergence test; format: in vivo, Cyperus esculentus; conditions: scale 0 to 100
# [16] = tested on: barnyardgrass; test: Test G preemergence test; format: in vivo, Echinochloa crus-galli; conditions: scale 0 to 100
# [17] = tested on: blackgrass; test: Test D preemergence test; format: in vivo, Alopecurus myosuroides; conditions: scale 0 to 100
# Text: as §2
# [18] = tested on: cotton; test: Test G preemergence test; format: in vivo, Gossypium hirsutum; conditions: scale 0 to 100
# [19] = tested on: spring wheat; test: Test D preemergence test; format: in vivo, Triticum aestivum; conditions: scale 0 to 100
# Text: as §2
# [20] = tested on: winter wheat; test: Test D preemergence test; format: in vivo, Triticum aestivum; conditions: scale 0 to 100
# Text: as §2
# [21] = tested on: goosegrass; test: Test G preemergence test; format: in vivo, Eleusine indica; conditions: scale 0 to 100
# [22] = tested on: green foxtail; test: Test D preemergence test; format: in vivo, Setaria viridis; conditions: scale 0 to 100
# Text: as §2
# [23] = tested on: itchgrass; test: Test G preemergence test; format: in vivo, Rottboellia cochinchinensis; conditions: scale 0 to 100
# [24] = tested on: wild oat; test: Test D preemergence test; format: in vivo, Avena fatua; conditions: scale 0 to 100
# Text: as §2
# [25] = tested on: soybean; test: Test G preemergence test; format: in vivo, Glycine max; conditions: scale 0 to 100
structure (smiles),measurement,setting,value
Cn1nc(C(F)(F)F)c(C[S+]([O-])c2ccc(Cl)c[n+]2[O-])c1OC(F)F (centres unmarked) [Compound 6],"Plant response rating, Ducksalad",[1],100
same,"Plant response rating, Barnyardgrass",[2],80
CC(c1c(C(F)(F)F)nn(C)c1OC(F)F)S(=O)(=O)c1cccc[n+]1[O-] (centres unmarked) [Compound 5],"Plant response rating, Ducksalad",[1],90
same,"Plant response rating, Barnyardgrass",[2],80
Cc1cc[n+]([O-])c(S(=O)(=O)C(Cl)c2c(C(F)(F)F)nn(C)c2Cl)c1 (racemic) [Compound 22],"Plant response rating, Bluegrass",[3]; 31 g ai/ha,20
same,"Plant response rating, Bluegrass",[3]; 62 g ai/ha,65
same,"Plant response rating, Bluegrass",[3]; 125 g ai/ha,95
same,"Plant response rating, Bluegrass",[3]; 250 g ai/ha,100
same,"Plant response rating, Canarygrass",[4]; 31 g ai/ha,0
same,"Plant response rating, Canarygrass",[4]; 62 g ai/ha,15
same,"Plant response rating, Canarygrass",[4]; 125 g ai/ha,75
same,"Plant response rating, Canarygrass",[4]; 250 g ai/ha,100
same,"Plant response rating, Lambsquarters",[5]; 31 g ai/ha,0
same,"Plant response rating, Lambsquarters",[5]; 62 g ai/ha,0
same,"Plant response rating, Lambsquarters",[5]; 125 g ai/ha,0
same,"Plant response rating, Lambsquarters",[5]; 250 g ai/ha,80
same,"Plant response rating, Millet",[6]; 31 g ai/ha,0
same,"Plant response rating, Millet",[6]; 62 g ai/ha,35
same,"Plant response rating, Millet",[6]; 125 g ai/ha,60
same,"Plant response rating, Millet",[6]; 250 g ai/ha,100
same,"Plant response rating, Corn",[7]; 31 g ai/ha,0
same,"Plant response rating, Corn",[7]; 62 g ai/ha,0
same,"Plant response rating, Corn",[7]; 125 g ai/ha,0
same,"Plant response rating, Corn",[7]; 250 g ai/ha,0
same,"Plant response rating, Foxtail, Giant",[8]; 31 g ai/ha,65
same,"Plant response rating, Foxtail, Giant",[8]; 62 g ai/ha,70
same,"Plant response rating, Foxtail, Giant",[8]; 125 g ai/ha,75
same,"Plant response rating, Foxtail, Giant",[8]; 250 g ai/ha,75
same,"Plant response rating, Waterhemp",[9]; 31 g ai/ha,0
same,"Plant response rating, Waterhemp",[9]; 62 g ai/ha,20
same,"Plant response rating, Waterhemp",[9]; 125 g ai/ha,30
same,"Plant response rating, Waterhemp",[9]; 250 g ai/ha,100
same,"Plant response rating, Barley","[10]; Preemergence, 62 g ai/ha, scale 0 to 100",0
same,"Plant response rating, Barley","[10]; Preemergence, 125 g ai/ha, scale 0 to 100",0
same,"Plant response rating, Barley","[10]; Preemergence, 31 g ai/ha, scale 0 to 100",0
same,"Plant response rating, Barley","[10]; preemergence, 250 g ai/ha, scale 0 (no effect) to 100 (complete control)",0
same,"Plant response rating, Ryegrass, Italian",[11]; 31 g ai/ha,0
same,"Plant response rating, Ryegrass, Italian",[11]; 62 g ai/ha,30
same,"Plant response rating, Ryegrass, Italian",[11]; 125 g ai/ha,35
same,"Plant response rating, Ryegrass, Italian",[11]; 250 g ai/ha,55
same,"Plant response rating, Nightshade",[12]; 31 g ai/ha,0
same,"Plant response rating, Nightshade",[12]; 62 g ai/ha,0
same,"Plant response rating, Nightshade",[12]; 125 g ai/ha,0
same,"Plant response rating, Nightshade",[12]; 250 g ai/ha,45
same,"Plant response rating, Sandbur",[13]; 31 g ai/ha,15
same,"Plant response rating, Sandbur",[13]; 62 g ai/ha,60
same,"Plant response rating, Sandbur",[13]; 125 g ai/ha,85
same,"Plant response rating, Sandbur",[13]; 250 g ai/ha,100
same,"Plant response rating, Sorghum",[14]; 31 g ai/ha,0
same,"Plant response rating, Sorghum",[14]; 62 g ai/ha,0
same,"Plant response rating, Sorghum",[14]; 125 g ai/ha,0
same,"Plant response rating, Sorghum",[14]; 250 g ai/ha,95
same,"Plant response rating, Nutsedge, Yellow",[15]; 31 g ai/ha,0
same,"Plant response rating, Nutsedge, Yellow",[15]; 62 g ai/ha,0
same,"Plant response rating, Nutsedge, Yellow",[15]; 125 g ai/ha,0
same,"Plant response rating, Nutsedge, Yellow",[15]; 250 g ai/ha,45
same,"Plant response rating, Barnyardgrass",[16]; 31 g ai/ha,0
same,"Plant response rating, Barnyardgrass",[16]; 62 g ai/ha,95
same,"Plant response rating, Barnyardgrass",[16]; 125 g ai/ha,100
same,"Plant response rating, Barnyardgrass",[16]; 250 g ai/ha,100
same,"Plant response rating, Blackgrass",[17]; 31 g ai/ha,40
same,"Plant response rating, Blackgrass",[17]; 62 g ai/ha,40
same,"Plant response rating, Blackgrass",[17]; 250 g ai/ha,95
same,"Plant response rating, Cotton",[18]; 31 g ai/ha,0
same,"Plant response rating, Cotton",[18]; 62 g ai/ha,0
same,"Plant response rating, Cotton",[18]; 125 g ai/ha,0
same,"Plant response rating, Cotton",[18]; 250 g ai/ha,0
same,"Plant response rating, Wheat, Spring",[19]; 31 g ai/ha,0
same,"Plant response rating, Wheat, Spring",[19]; 62 g ai/ha,0
same,"Plant response rating, Wheat, Spring",[19]; 125 g ai/ha,0
same,"Plant response rating, Wheat, Spring",[19]; 250 g ai/ha,15
same,"Plant response rating, Wheat, Winter",[20]; 31 g ai/ha,0
same,"Plant response rating, Wheat, Winter",[20]; 62 g ai/ha,0
same,"Plant response rating, Wheat, Winter",[20]; 125 g ai/ha,0
same,"Plant response rating, Wheat, Winter",[20]; 250 g ai/ha,10
same,"Plant response rating, Goosegrass",[21]; 31 g ai/ha,100
same,"Plant response rating, Goosegrass",[21]; 62 g ai/ha,100
same,"Plant response rating, Goosegrass",[21]; 125 g ai/ha,100
same,"Plant response rating, Goosegrass",[21]; 250 g ai/ha,100
same,"Plant response rating, Foxtail, Green",[22]; 31 g ai/ha,15
same,"Plant response rating, Foxtail, Green",[22]; 62 g ai/ha,40
same,"Plant response rating, Foxtail, Green",[22]; 125 g ai/ha,95
same,"Plant response rating, Foxtail, Green",[22]; 250 g ai/ha,100
same,"Plant response rating, Itchgrass",[23]; 31 g ai/ha,0
same,"Plant response rating, Itchgrass",[23]; 62 g ai/ha,15
same,"Plant response rating, Itchgrass",[23]; 125 g ai/ha,20
same,"Plant response rating, Itchgrass",[23]; 250 g ai/ha,40
same,"Plant response rating, Oat, Wild",[24]; 31 g ai/ha,0
same,"Plant response rating, Oat, Wild",[24]; 62 g ai/ha,0
same,"Plant response rating, Oat, Wild",[24]; 125 g ai/ha,0
same,"Plant response rating, Oat, Wild",[24]; 250 g ai/ha,15
same,"Plant response rating, Soybean",[25]; 31 g ai/ha,0
same,"Plant response rating, Soybean",[25]; 62 g ai/ha,0
same,"Plant response rating, Soybean",[25]; 125 g ai/ha,0
same,"Plant response rating, Soybean",[25]; 250 g ai/ha,0
